Consider 1 molecule from patent US4465676A, “16α Halogen substituted 3,17β-dihydroxy steroidal estrogens” (priority 1980, dated 1984).

Data set [1] is described as follows: Tissue radioactivity 6 hours after injection into castrated female rats with and without DES. The class given is in vivo, Sprague-Dawley rats. On the procedure: To deterine whether 16α-[^125 I]iodoestradiol would be recognized by estrogen-responsive tissues, it was injected into castrated female rats with and without diethylstilbestrol (DES); after 6 hours the concentration of radioactivity in the uterus was compared to that in several other tissues.
Female Sprague-Dawley rats (200 to 250 g) were castrated 48 hours before subcutaneous injection of ^125 I-labeled estradiol (1×10^6 count/min) dissolved in 10 μl of ethanol and 0.2 ml of saline. Twenty minutes before the administration of the iodinated estradiol, one group of rats (N=6) were injected with 5 μg of DES dissolved first in 50 μl of ethanol and then in 0.5 ml of saline. Another group of castrated rats (N=6) were injected with 0.5 ml of 10 percent ethanol in saline before receiving the radioactive steroid. The rats were killed 6 hours later and small pieces of the tissues were weighed and counted. All values are means ± standard deviations. To determine ether extractable radioactivity, the uterus, liver, and thyroid were homogenized in methanol and filtered. The filtrate was evaporated and the resulting residue was partitioned between ether and 0.1N NaHCO3. The ethereal solution was evaporated and counted and the results are tabulated below in Table I.
Several micrograms of 16α-iodoestradiol were added to the ether extract of the uterus and the mixture was submitted to high-pressure liquid chromatography. High pressure liquid chromatography was performed on a 250 by 4.6 mm Lichrosorb Diol column (merck) with methylene chloride at a flow rate of 1 ml/min. In this system 16α-iodoestradiol is eluted in 12 minutes and 16β-bromoestradiol in 8 minutes. […] The radioactivity in the thyroid gland, approximately 2000 count/min, is probably due to the uptake of free iodide arising from the metabolism of ^125 I-labeled estradiol in vivo and is equivalent to only 0.2 percent of the injected dose.

In data set [2] the target is T1, estrogen receptors (rat uterine cytosol) (Rattus norvegicus, UniProt P06211).
T1 sequence (P06211 1-600): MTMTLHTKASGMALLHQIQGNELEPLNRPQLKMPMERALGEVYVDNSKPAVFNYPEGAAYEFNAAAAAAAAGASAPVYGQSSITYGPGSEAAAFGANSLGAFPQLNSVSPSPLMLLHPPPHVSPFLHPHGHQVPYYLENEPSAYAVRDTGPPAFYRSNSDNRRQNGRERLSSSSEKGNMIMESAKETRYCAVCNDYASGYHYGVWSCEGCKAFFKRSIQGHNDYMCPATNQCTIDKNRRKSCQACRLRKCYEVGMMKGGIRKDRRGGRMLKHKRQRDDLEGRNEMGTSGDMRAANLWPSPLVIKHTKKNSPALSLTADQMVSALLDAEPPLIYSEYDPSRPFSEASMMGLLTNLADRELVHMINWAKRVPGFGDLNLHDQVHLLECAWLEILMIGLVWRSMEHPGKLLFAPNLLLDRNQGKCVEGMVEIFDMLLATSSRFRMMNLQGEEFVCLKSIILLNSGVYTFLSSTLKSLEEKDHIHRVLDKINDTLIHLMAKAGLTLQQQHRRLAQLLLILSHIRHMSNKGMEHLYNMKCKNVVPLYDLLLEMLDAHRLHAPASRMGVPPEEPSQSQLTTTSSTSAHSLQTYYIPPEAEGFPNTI
Description: Kinetic experiments and Scatchard analyses in rat uterine cytosol.

For data set [3], the target named is T2, calf uterine estrogen receptor (Bos taurus, UniProt P49884).
T2 construct: Fresh calf uteri obtained from a slaughterhouse; from tissue; host or cells: calf uterus, 150,000 x g cytosol from lyophilized powder
T2 sequence (P49884 1-596): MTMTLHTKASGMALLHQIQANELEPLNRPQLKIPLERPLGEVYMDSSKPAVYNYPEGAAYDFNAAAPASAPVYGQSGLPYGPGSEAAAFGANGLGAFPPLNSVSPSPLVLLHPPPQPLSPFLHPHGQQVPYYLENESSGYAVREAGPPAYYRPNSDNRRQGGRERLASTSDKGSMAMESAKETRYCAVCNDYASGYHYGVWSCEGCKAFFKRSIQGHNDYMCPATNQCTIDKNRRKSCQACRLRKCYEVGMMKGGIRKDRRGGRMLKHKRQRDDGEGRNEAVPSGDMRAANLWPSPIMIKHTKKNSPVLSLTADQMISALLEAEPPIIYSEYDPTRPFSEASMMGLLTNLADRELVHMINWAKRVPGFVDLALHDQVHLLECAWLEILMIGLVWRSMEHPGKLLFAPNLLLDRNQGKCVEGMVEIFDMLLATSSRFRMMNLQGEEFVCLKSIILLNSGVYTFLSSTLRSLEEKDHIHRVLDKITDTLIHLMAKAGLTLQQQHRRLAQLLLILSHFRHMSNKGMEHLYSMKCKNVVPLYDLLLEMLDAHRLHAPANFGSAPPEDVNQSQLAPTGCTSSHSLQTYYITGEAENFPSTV
The data set can be described thus: Saturation and Scatchard analysis of the estrogen receptor from calf uterus. The data set is classed as binding. The following applies: calf uterine cytosol. On the procedure:
Fresh calf uteri obtained from a slaughterhouse were brought to the laboratory on ice, immediately trimmed of fat, and cut into small pieces; the pieces were frozen in liquid nitrogen and pulverized. The pulverized frozen tissue was lyophilized, and the desiccated powder was stored under vacuum in sealed vials at -80° C. The uterine powders were usually used within 1 month of pulverization. When needed, the powders were suspended in 0.1M Tris-HCl, pH 7.4/2.5 mM EDTA/5 mM dithiotreithol (TED buffer) at 2.5 mg/ml and homogenized at 0° C. in a Polytron homogenizer with two or three pulses at 15 seconds each. The homogenate was then centrifuged at 150,000×g for 60 minutes and the resulting supernatant (cytosol), containing approximately 1 mg of protein per ml, was used for binding studies on the estrogen receptor.
After the solvent was removed under a stream of N2, 250 μl of cytosol was added and the samples were incubated at 0°-2° C. overnight. The following morning, 250 μl of a 0.5% suspension of dextran-coated charcoal in TED buffer was added to the tubes which then were mixed and centrifuged at 5000×g for 10 minutes. The supernatant was assayed to determine bound radioactivity.
A saturation analysis of the estrogen receptor from calf uterus was conducted. […] Nonspecific binding, specific binding and total binding were determined in parallel incubations containing 0.7 μM DES.
A Scatchard analysis of the estrogen receptor from calf uterus was also conducted.

The target in data set [4] is T3, estrogen receptor (calf uterine cytosol) (Bos taurus, UniProt P49884).
T3 construct: Fresh calf uteri obtained from a slaughterhouse; from tissue; host or cells: calf uterus, 150,000 x g cytosol from lyophilized powder
T3 sequence (P49884 1-596): T2 sequence (P49884 1-596)
Description: Competition for the estrogen receptor in calf uterine cytosol. Particulars: 125I-E2 0.22 nM, 3H-E2 0.74 nM. The class given is binding. On the procedure:
Several compounds, at the two indicated concentrations, were allowed to compete with both labeled steroids for sites in calf uterine cytosol. Incubations were overnight at 4° C., and bound and free steroids were separated with dextran-coated charcoal.

Data set [5] relates to testosterone-estradiol binding globulin. The data set can be described thus: Binding to testosterone-estradiol binding globulin of human plasma. The text has this: This protein contaminates most human tissue preparations, complicating the detection of sex steroid receptors.

Structures are written as SMILES. A value given as a limit tells only on which side of the number the result lay.

As usually defined, the Kd is the equilibrium constant for the complex coming apart. Lower therefore signals tighter binding. Turning to `C[C@]12CC[C@@H]3c4ccc(O)cc4CC[C@H]3[C@@H]1C[C@@H]([125I])[C@@H]2O` [^125 I-E2, 16α-[^125 I]iodoestra-1,3,5(10)-triene-3,17β-diol], the Ether-extractable radioactivity is 10-15% in data set [1] (Liver), 0-1% in data set [1] (Thyroid) and over 90% in data set [1] (Uterus). This molecule also gave a Kd in data set [2] of 0.27 nM. Besides, the “radioactivity bound (binding capacities)” value in data set [3] is 122,000 cpm. In addition, the “% B0 (initial specific binding of tracer alone)” value in data set [4] stood at 40%. Also, the “binding to testosterone-estradiol binding globulin” value in data set [5] is “does not bind”.
